Results on 2 compounds are retold here after patent US4849416A, “Treatment of conditions requiring enhanced oxygen availability to mammalian tissues” (Rorer Pharmaceutical Corporation, priority 1988, dated 1989).

Data set [1] deals with 2,3-diphosphoglycerate phosphatase. To be noted: at optimal concentrations; cited from earlier work.
Data set [2] relates to human red blood cells. Kind of data set: Determination of 2,3-diphosphoglyceric acid content in human red blood cells. It counts as cell-based. The method, then:
2. Determination of 2,3-Diphosphoglyceric Acid Content in Human Red Blood Cells Blood samples from healthy subjects were collected in heparnized tubes and were centrifuged for 10 minutes at 400 xg. The plasma and buffy layer containing while cells and platelets was removed. The red blood cells were washed three times in Krebs Ringer Bicarbonate buffer supplemented with 2.5 mg/ml bovine serum albumin. The washed cells were suspended in the same buffer in a ratio of 1 cell to 4 buffer v/v. The cell suspension was incubated in siliconized glass beakers in the absence and presence of the test compound at 37° C. in air, supplemented with 5% v/v carbon dioxide. After incubation, 1 ml of the blood sample was mixed with 1 ml of 12% w/v trichloroacetic acid. The mixture was left at 4° C. for 10 minutes and then was clarified by centrifugation. The 2,3-DPG content in the supernatant was quantified using a Sigma assay kit based on the method described by Lowry et al, J. Biol. Chem. 239, 18, 1964. Inhibition of 2,3-diphosphoglyceric acid degredation in human red blood cells was also conducted on compounds of the present invention and is shown in Table II for sulfasalazine.

Data set [3] has as its target T1, 2,3-DPG phosphatase (Homo sapiens, UniProt P07738).
T1 sequence (P07738 1-259): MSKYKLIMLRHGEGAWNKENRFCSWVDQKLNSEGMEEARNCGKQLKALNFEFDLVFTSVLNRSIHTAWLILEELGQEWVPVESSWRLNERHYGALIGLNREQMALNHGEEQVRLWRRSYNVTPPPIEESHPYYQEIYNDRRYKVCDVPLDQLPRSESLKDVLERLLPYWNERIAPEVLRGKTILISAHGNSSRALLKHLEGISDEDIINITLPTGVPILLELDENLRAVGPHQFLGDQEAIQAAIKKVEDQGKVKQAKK
Kind of data set: 2,3-Diphosphoglycerate phosphatase assay (radiochemical, release of 32P-phosphate from 2,3-DPG). The settings on record: 110 μM 2,3-DPG, 5 μM phosphoglycolate, pH 7.5, 37° C., 20 minutes. The class given is biochemical. On the procedure:
1. 2,3-Diphosphoglycerate Phosphatase Assay
The activity of 2,3-DPG phosphatase was determined radiochemically using a method based on Rose et al., (J. Biol. Chem. 245, 3232-3241, 1970). In this method the activity of the phosphatase is measured by determining the release of inorganic phosphate from the substrate, 2,3-DPG. The test compounds were dissolved in dimethyl sulfoxide at 100 times the final concentration used and then added to the reaction mixture at the beginning of the assay period. In the control experiments equivalent concentration of dimethyl sulfoxide was used.
14 μg of 2,3-DPG phosphatase was incubated in 0.2 ml of N-tris-[Hydroxy-methyl]methyl-2-aminoethane-sulfonic acid [TES], at pH 7.5, containing 110 μM ^32 p-labeled 2,3-DPG (having a specific activity of 70 to 200 μCi/μmol), 5 μM phosphoglycolate and 5 μM mercaptoethanol at 37° C. for 20 minutes in the presence and absence of the test compound. at the end of incubation the reaction was stopped by the addition of 0.1 ml of 15% w/v trichloroacetic acid and the sample was centrifuged (Eppendorf microfuge, Model 5413) in order to remove protein preciptitates. Then 0.2 ml of the supernatant was withdrawn and mixed with 0.1 ml of 8 M sulfuric acid, 0.1 ml of 5% w/v ammonium molybdate and 0.6 ml of water. The mixture then was extracted with 2 ml of isobutanol/benzene (1:1,v/v) and then centrifuged to effect separation of the phases. 1 ml of the organic phase containing the extracted ^32 p-phosphate was counted in a scintillation counter (Beckman, Model LS 8,000) using a program for ^32 p radioactivity. The activity of the enzyme was expressed as number of mole phosphate released per minute.
From the data obtained using the radiochemical method, percent inhibition of 2,3-DPG phosphatase was calculated. […] Representative inhibitory activity is shown for sulfasalazine in Table I.

As to `O=C(O)COP(=O)(O)O` [2-Phosphoglycolate], in data set [1], the “enhancement of the activity of 2,3-diphosphoglycerate phosphatase” value is listed as “about 1600 fold”.

Turning to `O=C(O)c1cc(N=Nc2ccc(S(=O)(=O)Nc3ccccn3)cc2)ccc1O` [sulfasalazine, 5-[[p-(2-pyridylsulfamoyl)phenyl]azo]salicyclic acid], the “2,3-diphosphoglyceric acid content” value is on record as 4.4 μmole/ml RBC in data set [2] (sulfasalazine 0.5 mM, incubation period 0 hrs, 37° C.); 3.9 μmole/ml RBC in data set [2] (sulfasalazine 0.5 mM, incubation period 3 hrs, 37° C. (control 3.7)); 3.0 μmole/ml RBC in data set [2] (sulfasalazine 0.5 mM, incubation period 6 hrs, 37° C. (control 2.4)); 4.4 μmole/ml RBC in data set [2] (sulfasalazine 1.0 mM, incubation period 0 hrs, 37° C.); 4.1 μmole/ml RBC in data set [2] (sulfasalazine 1.0 mM, incubation period 3 hrs, 37° C. (control 3.7)); 3.5 μmole/ml RBC in data set [2] (sulfasalazine 1.0 mM, incubation period 6 hrs, 37° C. (control 2.4)). Further, the inhibition at 20 µM in data set [3] (sulfasalazine 20 μM) is 23%. Further, at 100 µM the inhibition in data set [3] (sulfasalazine 100 μM) was 57%. Besides, the inhibition at 500 µM in data set [3] (sulfasalazine 500 μM) was 86%. In addition, in data set [3] (sulfasalazine 1000 μM), at 1000 µM the inhibition was 90%.
